Where two headings read alike, the source gives them in different places.
Key:
[1] = target: IKKε (Homo sapiens (Human), UniProt Q14164); assay: Lanthascreen TR-FRET kinase inhibition assay, IKKε; format: biochemical
Experimental: (§1) Compounds of the invention (synthesised as described below) were tested for activity against the IKKε and TBK-1 enzyme as follows:
(§2) Inhibitions studies were performed using a time-resolved fluorescence-based Lanthascreen™ assay. Phosphorylation of a fluorescein-labelled substrate peptide is measured using terbium-labeled phosphospecific antibodies.
(§3) Kinase inhibition assays (10 μL) were performed at 20° C. in 384-well plate format. […] The final reaction conditions contained 400 nM fluorescein-IkBα substrate ([…]), 20 μM ATP, 2 nM or 8 nM IKKε or TBK1 kinase respectively, and 3% DMSO in kinase assay buffer consisting of 50 mM HEPES (pH 7.5), 10 mM MgCl, 1 mM EGTA, 0.01% Brij-35.
(§4) Compound dilutions were prepared from 10 mM DMSO stocks by dilution into DMSO.
(§5) The kinase phosphorylation assay was initiated by the addition of the kinase and the reaction was allowed to proceed for 1 h or 2.5 h for IKKε and TBK-1 kinase respectively.

[2] = target: TBK1 (Homo sapiens (Human), UniProt Q9UHD2); assay: Lanthascreen TR-FRET kinase inhibition assay, TBK1; format: biochemical
Chain of TBK1 (Q9UHD2 whole entry): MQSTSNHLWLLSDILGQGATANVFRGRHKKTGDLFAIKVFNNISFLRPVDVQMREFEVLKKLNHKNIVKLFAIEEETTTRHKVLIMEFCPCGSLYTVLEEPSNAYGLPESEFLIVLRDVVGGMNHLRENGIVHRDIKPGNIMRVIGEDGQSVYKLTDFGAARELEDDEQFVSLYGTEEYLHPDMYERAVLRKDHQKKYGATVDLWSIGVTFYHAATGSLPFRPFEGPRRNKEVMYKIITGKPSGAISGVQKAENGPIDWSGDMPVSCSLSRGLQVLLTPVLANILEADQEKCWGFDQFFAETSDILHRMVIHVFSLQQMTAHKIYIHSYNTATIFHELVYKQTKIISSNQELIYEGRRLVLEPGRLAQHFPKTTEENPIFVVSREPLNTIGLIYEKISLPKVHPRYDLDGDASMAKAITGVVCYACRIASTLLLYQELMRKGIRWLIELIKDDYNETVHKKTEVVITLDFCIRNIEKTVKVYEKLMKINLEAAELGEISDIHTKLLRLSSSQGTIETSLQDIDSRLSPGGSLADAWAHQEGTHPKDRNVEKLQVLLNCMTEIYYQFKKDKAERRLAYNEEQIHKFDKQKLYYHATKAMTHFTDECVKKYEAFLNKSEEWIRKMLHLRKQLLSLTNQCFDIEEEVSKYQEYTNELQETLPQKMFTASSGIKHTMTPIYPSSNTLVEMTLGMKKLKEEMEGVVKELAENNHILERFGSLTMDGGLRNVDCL
Experimental: as §1, §2, §3, §4, §5

[3] = 20 μM ATP (apparent Km), 2 nM kinase, 1 h
[4] = 20 μM ATP (apparent Km), 8 nM kinase, 2.5 h

Chain of IKKε (Q14164 whole entry): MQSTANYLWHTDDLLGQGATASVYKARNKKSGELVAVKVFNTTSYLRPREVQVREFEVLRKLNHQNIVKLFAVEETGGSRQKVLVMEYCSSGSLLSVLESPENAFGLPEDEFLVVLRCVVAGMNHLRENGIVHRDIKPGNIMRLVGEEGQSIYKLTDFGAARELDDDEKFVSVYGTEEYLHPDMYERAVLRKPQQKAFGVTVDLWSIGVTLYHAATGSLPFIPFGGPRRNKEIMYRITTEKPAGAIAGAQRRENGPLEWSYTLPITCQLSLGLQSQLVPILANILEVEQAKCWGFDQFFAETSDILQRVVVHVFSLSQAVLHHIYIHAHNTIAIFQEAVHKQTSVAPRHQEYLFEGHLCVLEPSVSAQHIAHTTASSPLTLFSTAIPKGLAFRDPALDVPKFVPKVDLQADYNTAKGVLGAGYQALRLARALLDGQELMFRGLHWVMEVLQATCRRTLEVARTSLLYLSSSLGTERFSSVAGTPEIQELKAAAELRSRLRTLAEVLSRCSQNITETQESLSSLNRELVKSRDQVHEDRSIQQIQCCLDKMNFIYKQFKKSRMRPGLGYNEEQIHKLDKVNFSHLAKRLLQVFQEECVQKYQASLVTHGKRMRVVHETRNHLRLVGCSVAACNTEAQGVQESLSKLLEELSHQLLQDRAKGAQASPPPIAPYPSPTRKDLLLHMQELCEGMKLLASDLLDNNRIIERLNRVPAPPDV

Structure (SMILES)	IC50 [1, 3] [nM]	IC50 [2, 4] [nM]	IC50 [1] [nM]	IC50 [2] [nM]
CN1CCC(NC(=O)c2cccc(Nc3nccc(-c4cnc(N5CCC(F)(F)C5)c(C#N)c4)n3)c2)CC1 [DMX-14, 3-{4-[5-Cyano-6-(3,3-difluoro-pyrrolidin-1-yl)-pyridin-3-yl]-pyrimidin-2-ylamino}-N-(1-methyl-piperidin-4-yl)-benzamide]	< 100	< 100	–	–
N#Cc1cc(-c2ccnc(Nc3ccn[nH]3)n2)cnc1N1CC[C@H](F)C1 [DMX-64, 2-((S)-3-Fluoro-pyrrolidin-1-yl)-5-[2-(2H-pyrazol-3-ylamino)-pyrimidin-4-yl]-nicotinonitrile]	< 100	< 1000	–	–
CN1CCN(C(=O)c2cccc(Nc3nccc(-c4cnc(N5CC[C@H](F)C5)c(C#N)c4)n3)c2)CC1 [DMX-6, 2-((S)-3-Fluoro-pyrrolidin-1-yl)-5-{2-[3-(4-methyl-piperazine-1-carbonyl)-phenylamino]-pyrimidin-4-yl}-nicotinonitrile]	< 100	< 30	–	–
N#Cc1cc(-c2ccnc(Nc3ccc(N4CCOCC4)cc3)n2)cnc1N1CC[C@H](O)C1 [DMX-49, 2-((S)-3-Hydroxy-pyrrolidin-1-yl)-5-[2-(4-morpholin-4-yl-phenylamino)-pyrimidin-4-yl]-nicotinonitrile]	< 15	< 15	–	–
N#Cc1cc(-c2ccnc(Nc3cccc(C(N)=O)c3)n2)cnc1N1CCCC1 [DMX-2, 3-[4-(5-Cyano-6-pyrrolidin-1-yl-pyridin-3-yl)-pyrimidin-2-ylamino]-benzamide]	< 30	< 30	–	–
N#Cc1cc(-c2ccnc(Nc3ccc(CN4CCOCC4)nc3)n2)cnc1N1CC[C@H](F)C1 [DMX-68, 2-((S)-3-Fluoro-pyrrolidin-1-yl)-5-[2-(6-morpholin-4-ylmethyl-pyridin-3-ylamino)-pyrimidin-4-yl]-nicotinonitrile]	< 15	< 15	–	–
N#Cc1cc(-c2ccnc(Nc3ccc(N4CCNCC4)nc3)n2)cnc1N1CC[C@H](F)C1 [DMX-25, 2-((S)-3-Fluoro-pyrrolidin-1-yl)-5-[2-(6-piperazin-1-yl-pyridin-3-ylamino)-pyrimidin-4-yl]-nicotinonitrile]	< 15	< 30	–	–
COCCN(C)Cc1ccc(Nc2nccc(-c3cnc(N4CC[C@H](F)C4)c(C#N)c3)n2)cn1 [DMX-82, 2-((S)-3-Fluoro-pyrrolidin-1-yl)-5-[2-(6-{[(2-methoxy-ethyl)-methyl-amino]-methyl}-pyridin-3-ylamino)-pyrimidin-4-yl]-nicotinonitrile]	< 100	< 100	–	–
N#Cc1cc(-c2ccnc(Nc3ccc(NCCO)nc3)n2)cnc1N1CC[C@H](F)C1 [DMX-27, 2-((S)-3-Fluoro-pyrrolidin-1-yl)-5-{2-[6-(2-hydroxy-ethylamino)-pyridin-3-ylamino]-pyrimidin-4-yl}-nicotinonitrile]	–	< 30	< 30	–
N#Cc1nc(-c2ccnc(Nc3ccc(CN4CCOCC4)nc3)n2)ccc1N1CCCOCC1 [DMX-164, 6-[2-(6-Morpholin-4-ylmethyl-pyridin-3-ylamino)-pyrimidin-4-yl]-3-[1,4]oxazepan-4-yl-pyridine-2-carbonitrile]	< 30	< 100	–	–
CN1CCC(Nc2ccc(Nc3nccc(-c4cnc(N[C@@H]5CCOC5)c(C#N)c4)n3)cn2)CC1 [DMX-114, 5-{2-[6-(1-Methyl-piperidin-4-ylamino)-pyridin-3-ylamino]-pyrimidin-4-yl}-2-[(R)-(tetrahydro-furan-3-yl)amino]-nicotinonitrile]	< 100	< 100	–	–
N#Cc1nc(-c2ccnc(Nc3ccc(N4CCOCC4)cc3)n2)ccc1N1CC[C@H](O)C1 [DMX-57, 3-((S)-3-Hydroxy-pyrrolidin-1-yl)-6-[2-(4-morpholin-4-yl-phenylamino)-pyrimidin-4-yl]-pyridine-2-carbonitrile]	< 30	< 15	–	–
Cn1cc(Nc2nccc(-c3cnc(N4C5CCC4CC(O)C5)c(C#N)c3)n2)cn1 (stereo not shown) [DMX-44, 2-(3-Hydroxy-8-aza-bicyclo[3.2.1]oct-8-yl)-5-[2-(1-methyl-1H-pyrazol-4-ylamino)-pyrimidin-4-yl]-nicotinonitrile]	–	–	< 30	< 15
CC(C)(N)C(=O)Nc1ccc(Nc2nccc(-c3cnc(N4CC[C@H](F)C4)c(C#N)c3)n2)cn1 [DMX-62, 2-Amino-N-(5-{4-[5-cyano-6-((S)-3-fluoro-pyrrolidin-1-yl)-pyridin-3-yl]-pyrimidin-2-ylamino}-pyridin-2-yl)-2-methyl-propionamide]	< 30	< 100	–	–
Cn1cc(Nc2nccc(-c3cnc(N4CC[C@H](O)C4)c(C#N)c3)n2)cn1 [DMX-16, 2-((S)-3-Hydroxy-pyrrolidin-1-yl)-5-[2-(1-methyl-1H-pyrazol-4-ylamino)-pyrimidin-4-yl]-nicotinonitrile]	< 100	< 100	–	–
N#Cc1cc(-c2ccnc(Nc3ccc(NC(=O)CN4CCOCC4)nc3)n2)cnc1N1CC[C@H](F)C1 [DMX-17, N-(5-{4-[5-Cyano-6-((S)-3-fluoro-pyrrolidin-1-yl)-pyridin-3-yl]-pyrimidin-2-ylamino}-pyridin-2-yl)-2-morpholin-4-yl-acetamide]	< 30	< 30	–	–
Cc1nccn1Cc1ccc(Nc2nccc(-c3cnc(N4CC[C@H](F)C4)c(C#N)c3)n2)cn1 [DMX-81, 2-((S)-3-Fluoro-pyrrolidin-1-yl)-5-{2-[6-(2-methyl-imidazol-1-ylmethyl)-pyridin-3-ylamino]-pyrimidin-4-yl}-nicotinonitrile]	< 30	< 30	–	–
N#Cc1cc(-c2ccnc(Nc3cnc(N4CCOCC4)nc3)n2)cnc1N1CC[C@H](F)C1 [DMX-20, 2-((S)-3-Fluoro-pyrrolidin-1-yl)-5-[2-(2-morpholin-4-yl-pyrimidin-5-ylamino)-pyrimidin-4-yl]-nicotinonitrile]	< 100	< 100	–	–
CN1CCC(Nc2ccc(Nc3nccc(-c4cnc(N5CC[C@H](F)C5)c(C#N)c4)n3)cn2)CC1 [DMX-9, 2-((S)-3-Fluoro-pyrrolidin-1-yl)-5-{2-[6-(1-methyl-piperidin-4-ylamino)-pyridin-3-ylamino]-pyrimidin-4-yl}-nicotinonitrile]	< 15	< 30	–	–
N#Cc1nc(-c2ccnc(Nc3ccc(CN4CCOCC4)nc3)n2)ccc1N1CC[C@H](O)C1 [DMX-144, 3-((S)-3-Hydroxy-pyrrolidin-1-yl)-6-[2-(6-morpholin-4-ylmethyl-pyridin-3-ylamino)-pyrimidin-4-yl]-pyridine-2-carbonitrile]	< 30	< 30	–	–

Now from value to compound, other results behind:

IC50 [1, 3] [nM]	IC50 [2, 4] [nM]	Structure (SMILES)	IC50 [1] [nM]	IC50 [2] [nM]
< 30	< 15	C[C@H]1COCCN1Cc1cc(Nc2nccc(-c3cnc(N4CC[C@H](F)C4)c(C#N)c3)n2)ccn1 [DMX-78, 2-((S)-3-Fluoro-pyrrolidin-1-yl)-5-{2-[2-((S)-3-methyl-morpholin-4-ylmethyl)-pyridin-4-ylamino]-pyrimidin-4-yl}-nicotinonitrile]	–	–
< 15	< 15	CN1CCC(NC(=O)c2ccc(Nc3ncc(F)c(-c4cnc(N5CC[C@H](F)C5)c(C#N)c4)n3)cc2)CC1 [DMX-28, 4-{4-[5-Cyano-6-((S)-3-fluoro-pyrrolidin-1-yl)-pyridin-3-yl]-5-fluoro-pyrimidin-2-ylamino}-N-(1-methyl-piperidin-4-yl)-benzamide]	–	–
< 15	< 15	N#Cc1nc(-c2ccnc(Nc3ccc(CN4CC[C@H](F)C4)nc3)n2)ccc1N1CC[C@H](F)C1 [DMX-150, 3-((S)-3-Fluoro-pyrrolidin-1-yl)-6-{2-[6-((S)-3-fluoro-pyrrolidin-1-ylmethyl)-pyridin-3-ylamino]-pyrimidin-4-yl}-pyridine-2-carbonitrile]	–	–
< 15	< 15	COCCN1Cc2ccc(Nc3nccc(-c4cnc(N5CC[C@H](F)C5)c(C#N)c4)n3)cc2C1 [DMX-127, 2-((S)-3-Fluoro-pyrrolidin-1-yl)-5-{2-[2-(2-methoxy-ethyl)-2,3-dihydro-1H-isoindol-5-ylamino]-pyrimidin-4-yl}-nicotinonitrile]	–	–
< 100	< 100	N#Cc1cc(-c2ccnc(Nc3ccc(CN4CCOCC4)nc3)n2)cnc1N1CCCOCC1 [DMX-84, 5-[2-(6-Morpholin-4-ylmethyl-pyridin-3-ylamino)-pyrimidin-4-yl]-2-[1,4]oxazepan-4-yl-nicotinonitrile]	–	–
< 100	< 100	N#Cc1cc(-c2ccnc(Nc3ccc(CN4CCOCC4)nc3)n2)cnc1NC1CCCC1 [DMX-139, 2-Cyclopentylamino-5-[2-(6-morpholin-4-ylmethyl-pyridin-3-ylamino)-pyrimidin-4-yl]-nicotinonitrile]	–	–
< 100	< 30	N#Cc1cc(-c2ccnc(Nc3cnn(CCN4CCOCC4)c3)n2)cnc1N1CC[C@H](F)C1 [DMX-53, 2-((S)-3-Fluoro-pyrrolidin-1-yl)-5-{2-[1-(2-morpholin-4-yl-ethyl)-1H-pyrazol-4-ylamino]-pyrimidin-4-yl}-nicotinonitrile]	–	–
< 15	< 15	N#Cc1nc(-c2ccnc(Nc3ccc(CN4CCNC(=O)C4)nc3)n2)ccc1N1CC[C@H](F)C1 [DMX-156, 3-((S)-3-Fluoro-pyrrolidin-1-yl)-6-{2-[6-(3-oxo-piperazin-1-ylmethyl)-pyridin-3-ylamino]-pyrimidin-4-yl}-pyridine-2-carbonitrile]	–	–
< 100	< 100	Cn1cc(Nc2nccc(-c3cnc(N4CCC[C@@H]4C(N)=O)c(C#N)c3)n2)cn1 [DMX-43, (R)-1-{3-Cyano-5-[2-(1-methyl-1H-pyrazol-4-ylamino)-pyrimidin-4-yl]-pyridin-2-yl}-pyrrolidine-2-carboxylic acid amide]	–	–

Reference: US9433622B2, “Pyrimidine compounds useful in the treatment of diseases mediated by IKKE and/or TBK1 mechanisms” (DOMAINEX LIMITED, priority 2013, dated 2016)
